From EP0139983A1, “Crystalline salts of L or (S)-3-(3,4-dihydroxyphenyl)-2-methylalanine esters and process” (Merck & Co., Inc., priority 1983, dated 1985)
Where a name gives a salt, the structure may show the parent alone. Read-outs that look alike come from different tables or passages of the source.

Experiments:
[1] = Solubility in aqueous media; format: physicochemical; conditions: salt solubility is system dependent (amount of salt present, relative amount of (R) and (S) salts)
[2] = Stability (aqueous environment, mechanical stress, heat and compression); format: physicochemical; conditions: subjected to an aqueous environment or to mechanical stress such as grinding

solubility [1] [grams per liter] | Structure (SMILES) | also measured
156 to 383 | CC(OC(=O)C(C)(C)C)OC(=O)C(C)(N)Cc1ccc(O)c(O)c1 (stereo not shown) [solvated tartaric acid salt mixture] | 
 | CC(OC(=O)C(C)(C)C)OC(=O)[C@@](C)(N)Cc1ccc(O)c(O)c1 (stereo partly drawn) [POE ester bases, (R,S)-l-pivaloyloxyethyl (S)-3-(3,4-dihydroxyphenyl)-2-methylalaninate] | stability [2]: tend to be unstable
 | C[C@](N)(Cc1ccc(O)c(O)c1)C(=O)O (single isomer, unassigned) [methyldopa, L or (S)-3-(3,4-dihydroxyphenyl)-2-methylalanine] | solubility ([1]; read-out: solubility): 10000 µg/mL
57 to 197 | CC(OC(=O)C(C)(C)C)OC(=O)C(C)(N)Cc1ccc(O)c(O)c1 (mixture of isomers) [solvated phosphate salt mixture of (R,S)-POE ester of methyl] | 
